Assay results as given in US20210371388A1, “Bicyclic Carboxamide with Exocyclic Urea Derivatives as Antivirals for the Treatment of HBV Infection” (Baruch S. Blumberg Institute, priority 2020, published 2021).
pEC50: −log10 of the molar value.

Tested on: HBV replication in AML12HBV10 cells
Test: Antiviral efficacy: HBV DNA in AML12HBV10 cell lysates by dot-blot hybridization
Assay type: cell-based
Settings: Hepatitis B virus, AML12HBV10, 48 h, read-out: Antiviral activity (EC50), AML12HBV10 cells, 48 hours treatment, concentration that reduces the amount of HBV DNA by 50%
Experimental: The antiviral efficacy of the compounds of the disclosure, as presented in Table 2, were determined in AML12HBV10 cells. AML12HBV10 is an immortalized murine hepatocyte (AML12)-derived stable cell line that supports robust HBV replication in a tetracycline inducible manner (Xu et al.). The cells were seeded into 96 well plates at a density of 2×10^4 cells per well and cultured in DMEM/F12 media with 10% fetal bovine serum in the absence of tetracycline to allow pgRNA transcription and HBV DNA replication. One day after seeding, cells were left untreated or treated with a serial dilution of testing compounds, ranging from 50 μM to 0.39 μM, for 48 hours. Cells were then lysed by adding into each well of 100 μl lysis buffer containing 10 mM Tris-HCl (pH 7.6), 1 mM EDTA, 100 mM NaCl and 1% NP-40 and incubated at 37° C. for 30 minutes. Half amount (50 μλ) of cell lysate from each well was combined with equal volume of denaturing solution containing 0.5N NaOH and 1.5M NaCl. After 5 minute incubation, 100 μl of neutralization solution (1M Tris-HCl, pH 7.4, 1.5M NaCl) was added into each well. The denatured cell lysates (totally 200 μl) were applied onto Nylon membrane using 96-well dot-blot manifold (Biorad). HBV DNA in the cell lysates were determined by dot-blot hybridization with alpha-^32P-UTP-labelled riboprobe specific for HBV minus strand DNA. The antiviral efficacy of a compound of the disclosure was expressed as the concentration that reduces the amount of HBV DNA by 50% (EC50).

Row | Compound | pEC50
1 | O=C(Nc1ccc(F)c(Cl)c1)N1CCCC2CCCCC21 (centres unmarked) [Entry 46] | ≤ 5.00
2 | O=C(Nc1ccc(F)c(Cl)c1)N1CCN[C@H]2CCCC[C@H]21 [Entry 47] | ≤ 5.00
3 | O=C(Nc1ccc(F)c(Cl)c1)N1CCN(C(=O)Nc2ccc(F)c(Cl)c2)c2ccccc21 [Entry 48] | 6.12
4 | O=C(Nc1ccc(F)c(Cl)c1)N1CC2(CCCC2)Nc2ccccc21 [Entry 49] | ≤ 5.00
5 | CC1(C)CN(C(=O)Nc2ccc(F)c(Cl)c2)c2ccccc2N1 [Entry 50] | ≤ 5.00
6 | CC1CN(C(=O)Nc2ccc(F)c(Cl)c2)c2ccccc2N1 (centres unmarked) [Entry 51] | ≤ 5.00
7 | O=C(Nc1ccc(F)c(Cl)c1)N1CC(c2ccccc2)Nc2ccccc21 (centres unmarked) [Entry 52] | ≤ 5.00
8 | O=C(Nc1ccc(F)c(Cl)c1)N1CCS(=O)(=O)c2ccccc21 [Entry 53] | ≤ 5.00
9 | CC(C)(C)NC(=O)N1CCN(C(=O)Nc2ccc(F)c(Cl)c2)c2ccccc21 [Entry 54] | ≤ 5.00
10 | O=C1CN(C(=O)Nc2ccc(F)c(Cl)c2)C2CCCCC2N1 (centres unmarked) [Entry 56] | ≤ 5.00
11 | O=C(Nc1cccc(Cl)c1)N1CCN(C(=O)Nc2ccc(F)c(Cl)c2)c2ccccc21 [Entry 57] | 6.19
12 | O=C(Nc1cc(Cl)ccc1F)N1CCNc2ccccc21 [Entry 58] | 6.11
13 | O=C(Nc1cc(F)c(F)c(F)c1)N1CCN(C(=O)Nc2cc(F)c(F)c(F)c2)c2ccccc21 [Entry 59] | 5.95
14 | NC(=O)C1CN(C(=O)Nc2ccc(F)c(Cl)c2)c2ccccc2N1 (centres unmarked) [Entry 62] | ≤ 5.00
15 | O=C(Nc1ccc(F)c(Cl)c1)N1c2ccccc2NCC1c1ccccc1 (centres unmarked) [Entry 63] | 6.11
16 | CC1CNc2ccccc2N1C(=O)Nc1ccc(F)c(Cl)c1 (centres unmarked) [Entry 64] | 5.36
17 | CC1CN(C(=O)Nc2ccc(F)c(Cl)c2)c2ccccc2N1C(=O)Nc1ccc(F)c(Cl)c1 (centres unmarked) [Entry 65] | 5.89
18 | CC(C)C1CN(C(=O)Nc2ccc(F)c(Cl)c2)c2ccccc2N1C(=O)NCc1ccc(F)c(F)c1 (centres unmarked) [Entry 66] | 5.78
19 | O=C(Nc1ccc(F)c(Cl)c1)N1CC(CN2CCOCC2)N(C(=O)Nc2ccc(F)c(Cl)c2)c2ccccc21 (centres unmarked) [Entry 67] | 5.69
20 | O=C(Nc1ccc(F)c(Cl)c1)N1CC(CN2CCC(O)CC2)N(C(=O)Nc2ccc(F)c(Cl)c2)c2ccccc21 (centres unmarked) [Entry 68] | ≤ 5.00

Row | Compound | pEC50
21 | O=C(Nc1ccc(F)c(Cl)c1)N1CC(CN2CCC(F)(F)C2)N(C(=O)Nc2ccc(F)c(Cl)c2)c2ccccc21 (centres unmarked) [Entry 69] | 6.19
22 | CN1CCN(CC2CN(C(=O)Nc3ccc(F)c(Cl)c3)c3ccccc3N2C(=O)Nc2ccc(F)c(Cl)c2)CC1 (centres unmarked) [Entry 70] | ≤ 5.00
23 | O=C(Nc1ccc(F)c(Cl)c1)N1CC(CN2CCCC(F)(F)C2)N(C(=O)Nc2ccc(F)c(Cl)c2)c2ccccc21 (centres unmarked) [Entry 72] | 5.91
24 | O=C1CC(c2ccccc2)N(C(=O)Nc2ccc(F)c(Cl)c2)c2ccccc21 (centres unmarked) [Entry 73] | 5.54
25 | O=C(Nc1ccc(F)c(Cl)c1)N1CC(CN2CCC(F)(F)C2)Nc2ccccc21 (centres unmarked) [Entry 76] | 5.29
26 | O=C(Nc1ccc(F)c(Cl)c1)N1c2ccccc2NCC1CN1CCC(F)(F)CC1 (centres unmarked) [Entry 77] | 6.55
27 | O=C(Nc1ccc(F)c(Cl)c1)N1CC(CN2CCC(F)(F)CC2)Nc2ccccc21 (centres unmarked) [Entry 78] | 5.36
28 | O=C(Nc1ccc(F)c(Cl)c1)N1c2ccccc2NCC1CN1CCC(F)(F)C1 (centres unmarked) [Entry 79] | 5.77
29 | CC(C)C1CNc2ccccc2N1C(=O)Nc1ccc(F)c(Cl)c1 (centres unmarked) [Entry 81] | 5.46
30 | O=C(Nc1ccc(F)c(Cl)c1)N1CCNc2cc(F)c(F)cc21 [Entry 82] | 6.21
31 | O=C(Nc1ccc(F)c(Cl)c1)N1CCN(C(=O)Nc2ccc(F)c(Cl)c2)c2cc(F)c(F)cc21 [Entry 83] | 5.93
32 | O=C1CC(c2ccc(F)cc2)N(C(=O)Nc2ccc(F)c(Cl)c2)c2ccccc21 (centres unmarked) [Entry 84] | 5.63
33 | O=C1CCN(C(=O)Nc2ccc(F)c(Cl)c2)c2ccc(Br)cc21 [Entry 85] | ≤ 5.00
34 | O=C1CCN(C(=O)Nc2ccc(F)c(Cl)c2)c2ccc(Cl)cc21 [Entry 86] | 5.32
35 | O=C(Nc1ccc(F)c(Cl)c1)N1CCNc2cc(OCc3ccccc3)ccc21 [Entry 87] | 5.55
36 | O=C(Nc1ccc(F)c(Cl)c1)N1C(c2ccccc2)CN[C@H]2CCCC[C@@H]21 (some centres unmarked) [Entry 88] | ≤ 5.00
37 | O=C(Nc1ccc(F)c(Cl)c1)N1c2ccccc2NCC1CN1CCOCC1 (centres unmarked) [Entry 89] | 5.14
38 | COC(=O)C1COCCN1CC1CNc2ccccc2N1C(=O)Nc1ccc(F)c(Cl)c1 (centres unmarked) [Entry 90] | 5.66
39 | O=C(O)C1COCCN1CC1CNc2ccccc2N1C(=O)Nc1ccc(F)c(Cl)c1 (centres unmarked) [Entry 91] | ≤ 5.00
40 | O=C(Nc1ccc(F)c(Cl)c1)N1CC(CN2CCOCC2)Nc2ccccc21 (centres unmarked) [Entry 96] | ≤ 5.00

Row | Compound | pEC50
41 | COC(=O)[C@H]1CC(F)(F)CN1CC1CNc2ccccc2N1C(=O)Nc1ccc(F)c(Cl)c1 (some centres unmarked) [Entry 97] | ≤ 5.00
42 | O=C(O)[C@H]1CC(F)(F)CN1CC1CNc2ccccc2N1C(=O)Nc1ccc(F)c(Cl)c1 (some centres unmarked) [Entry 98] | ≤ 5.00
43 | COC(=O)[C@@H]1CC(F)(F)CN1CC1CNc2ccccc2N1C(=O)Nc1ccc(F)c(Cl)c1 (some centres unmarked) [Entry 100] | 5.95
44 | O=C(Nc1ccc(F)c(Cl)c1)N1c2ccccc2NCC1CN1CCC2(CC1)OCCO2 (centres unmarked) [Entry 103] | ≤ 5.00
45 | CS(=O)(=O)N1CCN(CC2CNc3ccccc3N2C(=O)Nc2ccc(F)c(Cl)c2)CC1 (centres unmarked) [Entry 104] | ≤ 5.00
46 | CCOC(=O)C1=C(F)CCN(CC2CNc3ccccc3N2C(=O)Nc2ccc(F)c(Cl)c2)C1 (centres unmarked) [Entry 105] | ≤ 5.00
47 | CCOC(=O)C1CN(CC2CNc3ccccc3N2C(=O)Nc2ccc(F)c(Cl)c2)CCC1(F)F (centres unmarked) [Entry 106] | 5.11
48 | O=C(O)C1CCCN(CC2CNc3ccccc3N2C(=O)Nc2ccc(F)c(Cl)c2)C1 (centres unmarked) [Entry 107] | ≤ 5.00
49 | O=C(Nc1ccc(F)c(Cl)c1)N1c2ccccc2NCC1CN1CCC(F)(F)C(CO)C1 (centres unmarked) [Entry 108] | 5.66
50 | O=C(Nc1ccc(F)c(Cl)c1)N1c2ccccc2NCC1CN1CCS(=O)(=O)CC1 (centres unmarked) [Entry 110] | 5.70
51 | O=C(Nc1cc(F)c(F)c(F)c1)N1CCN(C(=O)Nc2ccc(F)c(Cl)c2)c2ccccc21 [Entry 111] | 6.30
52 | O=C(Nc1ccc(F)c(Cl)c1)N1CCN(C(=O)Nc2cc(Cl)c(F)cc2F)c2ccccc21 [Entry 112] | 6.54
53 | O=C(O)C1CN(CC2CNc3ccccc3N2C(=O)Nc2ccc(F)c(Cl)c2)CC(F)(F)C1 (centres unmarked) [Entry 113] | 6.35
54 | Cc1cc(NC(=O)N2CCNc3ccccc32)ccc1F [Entry 116] | 6.62
55 | N#Cc1cc(NC(=O)N2CCNc3ccccc32)ccc1F [Entry 119] | 6.28
56 | O=C1CCN(C(=O)Nc2ccc(F)c(C(F)(F)F)c2)C2CCCCC12 (centres unmarked) [Entry 120] | 5.96
57 | O=C(Nc1ccc(F)c(C(F)(F)F)c1)N1CCNc2ccccc21 [Entry 122] | 6.49
58 | O=C(Nc1ccc(F)c(C(F)F)c1)N1CCNc2ccccc21 [Entry 125] | 6.72
59 | O=C1CCN(C(=O)Nc2cccc(Cl)c2)C2CCCCC12 (centres unmarked) [Entry 126] | 6.70
